# From US11707440B2 (priority 2017, dated 2023)
# Legend:
# subjects with TRD [1] = tested on: subjects with TRD; design: species or system human; conditions: in vivo
# Source text: Subjects with and without hypertension experienced similar magnitude of mean increases of SBP and DBP.
# The maximum mean increases (across all dosing days within the respective phase) in diastolic BP were 5.6 and 5.2 in the IND and OP/MA phases, respectively.
# [2] = tested on: female Sprague-Dawley rats, PCG/RSC of the brain; assay: 14-day repeated dose neurotoxicity study, intranasal instillation; conditions: 14-day study, 54 mg/day
# Protocol: Esketamine HCl was administered into each nostril of female rats at a volume of 50 μl per nostril either once, twice or thrice daily by intranasal instillation for 14 consecutive days at doses of 0 (vehicle), 18, 36 or 54 mg/day. At each instillation, the second nostril was dosed immediately after the first nostril. The interval between subsequent instillations into both nostrils was 5 minutes when dosed 2 or 3 times per day.
# The vehicle control group received 3 subsequent intranasal instillations of the vehicle into both nostrils (50 μL per nostril) with 5-minute intervals for 14 consecutive days.
# The positive control group received a single subcutaneous injection of (+)MK-801 at 48 hours prior to the necropsy of the vehicle control and esketamine HCl-treated animals.
# Each group of main study animals consisted of 12 female rats. Four satellite animals were added to the esketamine HCl-dosed groups of main study animals for TK purposes. The plasma exposure to esketamine was measured in these animals on the first and the last day of dosing at various time points up to and including 24 hours after the first instillation.
# Due to logistic constraints associated with the whole body perfusion procedure of the animals at necropsy, a staggered start was applied to the study. Consequently, all 5 groups of main study animals were divided into three subgroups of 4 animals each. For each of these subgroups treatment started on a different day. The perfusion procedure is the is the same as described for the single dose study.
# All vehicle- and esketamine HCl-treated animals were sacrificed at 48 hours after the last instillation. […] The brain tissue of the vehicle control-, positive control- and esketamine HCl-treated rats were processed at the same time and handled in the same way in batches of 4 animals per group.
# Furthermore, clinical observations were recorded for the esketamine HCl-dosed rats on the day of dosing at 0 till 5 minutes, 15 and 30 minutes, and at 1, 2, 4, 6 hours post-dose, at the end of the working day and at 24 hours after the last instillation in the single dose study and on the first day of dosing, after one week and towards the end of the dosing period in the repeated dose study. Body weight and body weight gain were measured daily. Food consumption was measured weekly in the repeated dose study.
# On the day of terminal kill, a complete physical examination was performed on the rats in fasted condition and body weight was recorded. The surviving animals were anaesthetized by inhalation of an isoflurane (IsoFlo® Zoetis, Belgium)/oxygen mixture and killed by exsanguination via the carotid artery. […] All terminally killed rats or those killed pre-terminally were perfused with 4% paraformaldehyde in the single dose study and with glutaraldehyde 3% in potassium phosphate buffer 0.09 M with 1.4% sucrose in the repeated dose study.
# Brain tissue was sampled and processed routinely. The trimmed and embedded tissue was sectioned and stained with hematoxylin-eosin (HE). Histoprocessing and staining were carried out in three batches of 4 animals per group (each batch thus containing 4 animals from vehicle control-, positive control- and the three esketamine HCl-treated groups). In the single dose study duplicate brain sections were stained with Fluoro-Jade (FJ).
# All tissues showing gross abnormalities were examined […]. Histopathological examination was performed on 7 levels of brain tissue according to Bolon (2013. Toxicol. Pathol. 41(7), 1028-1048) from the vehicle control-, positive control-, and high dose esketamine HCl-treated groups in the single dose study, and in all groups in the repeated dose study.
# subjects with TRD [3] = type: in vivo, human; conditions: among the 76 subjects who discontinued intranasal esketamine
# Source text: The efficacy and safety analyses are based on the full (IND) analysis set and the full (OP/MA) analysis set. The full (IND) analysis set is defined as all subjects who receive at least 1 dose of intranasal study medication or 1 dose of oral antidepressant in the open-label IND phase (for direct-entry and transferred-entry non-responder subjects). The full (OP/MA) analysis is defined as all subjects who receive at least 1 dose of intranasal study medication or 1 dose of oral antidepressant in the OP/MA phase. Safety variables include cognition function over time, treatment-emergent adverse events (TEAEs), including TEAEs of special interest, vital signs over time, Clinician-Administered Dissociative Symptom Scale (CADDS) over time, and Modified Observer's Assessment of Alertness/Sedation (MOAA/S) score≤3. Efficacy variables include the MADRS which consists of 10 items that cover all the core depressive symptoms: each item is scored from 0 (symptom is not present or is normal) to 6 (severe or continuous presence of the symptom). A total score (0 to 60) is calculated by summing the scores of all 10 items. A higher score represents a more severe condition.
# Overall, 90.1% of subjects experienced at least one TEAE in the IND and OP/MA phases.
compound,measurement,setting,value
"CN[C@]1(c2ccccc2Cl)CCCCC1=O [esketamine, (S)-2-(2-chlorophenyl)-2-(methylamino)cyclohexanone]",Subjects who discontinued intranasal esketamine due to increased blood pressure,subjects with TRD [1],Six
same,AUC-based safety margin compared with the maximum 84 mg clinical dose,[2],~11 fold
same,Cmax-based safety margin compared with the maximum 84 mg clinical dose,[2],approximately 17 fold
same,"Subjects with a discontinuation AE considered related (possibly, probably, or very likely) to esketamine",subjects with TRD [3],51 subjects
